Tests used:
pH 8.0 buffer stability = format: physicochemical; conditions: 150 mM NaH2PO4 buffer pH 8.0, 60 min, 37° C.
Description: For the pH 8.0 stability studies, 190 μL of 150 mM NaH2PO4 buffer pH 8.0 was added to each sample tube. Ten (10) μL of 20 mM test compound was added to each tube and mixed. The samples were incubated for 60 min at 37° C. Following incubation, the samples were transferred to room temperature and 800 μL of 50% ACN in water was added to each tube. Samples were analyzed using LC/MS/MS to determine the concentrations of prodrug and parent drug.
(§1) LC-MS/MS analysis for MHF was performed using an API 4000 equipped with an Agilent 1100 HPLC and a Leap Technologies autosampler. A HPLC Phenomenex Onyx Monolithic C18 (CHO-7644) column at a temperature of 35° C., flow rate of 2.0 mL/min, injection volume of 30 μL, and a 3 min run time was used. Mobile phase AI was 0.1% formic acid in water and Mobile phase AII was 0.1% formic acid in acetonitrile. The gradient was 98% AI/2% AII at time 0; 98% AI/2% AII at time 0.1 mM; 5% AI/95% AII at time 1.4 mM; 5% AI/95% AII at time 2.2 min; 98% AI/2% AII at time 2.3 mM; and 98% AI/2% AII at time 3.0 min MHF content was determined using negative ion mode (Q1 128.94; Q2 71).

[1] = Enzymatic stability of prodrug in rat plasma; format: in vitro ADME; conditions: 37° C.; for half-life at 40 µM: read-out: T1/2 Parent Prodrug Cleavage (min) rPlasma
Description: Rat plasma (Pel-Freez® Biologicals, Rogers, Ark.; 36150) was used as obtained from the supplier.
(§2) The enzymatic stability assays for prodrug in CaCo2 S9, rat liver S9, rat plasma, pig pancreatin, and rat colonic was were performed using the following procedure. Ninety (90) μL of lysate is aliquoted to designated tubes on a cluster plates. The lysate was preincubated for 10 min at 37° C. With the exception of the t(0) time point, 10 μL of a 400 μM solution of test compound in 0.1M Tris buffer, pH 7.4 was added to multiple wells representing different incubation times. The samples were incubated at 37° C. At each time point, the reaction was quenched by adding 300 μL of 100% ethanol. The samples were thoroughly mixed, the tubes transferred to a V-bottom plate, and stored at −20° C. For the t(0) time point, the lysate was quenched with 300 μL of ice cold 100% ethanol, thoroughly mixed, 10 μL of 400 μM test compound was added and mixed, and the sample tube transferred to a V-bottom plate and stored at −20° C. For analysis, 180 μL from each sample was transferred to a 96 well V-bottom plate and sealed. After all time points were collected, the plate was centrifuged for 10 min at 5600 rpm at 4° C. One-hundred fifty (150) μL from each well was then transferred to a 96 well round bottom plate. Samples were analyzed using LC/MS/MS to determine the concentrations of prodrug and parent drug.
as §1

[2] = Enzymatic stability of prodrug in CaCo2 S9 homogenate; format: in vitro ADME; conditions: CaCo2 S9 0.5 mg/mL, 0.1M Tris pH 7.4, 37° C.; for half-life at 40 µM: human, Caco-2 cell S9 homogenate, read-out: T1/2 Parent Prodrug Cleavage (min) CaCo2
Description: CaCo2 S9 homogenate was prepared using the following procedure. CaCo2 cells were grown in culture for 21 days prior to harvesting. Culture medium was removed from the culture vessel and the monolayer was rinsed twice with 10-15 mL chilled PBS buffer. PBS buffer (7-10 mL) was added to the flask and the cells scraped from the growth surface and transferred to a centrifuge tube. The cells were pelleted by centrifugation at 1500 rpm for 5 min at 4° C. The supernatant was removed and the cell pellet washed with ice cooled PBS and repelleted by centrifugation. The supernatant was removed and the pellet resuspended in cell lysis buffer (0.15M KCl and 10 mM sodium phosphate buffer, pH 7.4). Cells were lysed by sonication at 4° C. using a probe sonicator. The lysed cells were then transferred to vials and centrifuged at 1600 rpm for 10 min at 4° C. to remove intact cells, nuclei, and large cellular debris. The supernatant was removed and transferred to a tube for centrifugation at 8600 rpm for 20 min at 4° C. After centrifugation, the resulting supernatant representing the CaCo2 cell homogenate S9 fraction was carefully removed and aliquoted into vials for storage at −80° C. until the time of use. At the time of use, CaCo2 S9 lysate was diluted to 0.5 mg/mL in 0.1M Tris buffer, pH 7.4.
as §2, §1

[3] = Enzymatic stability of prodrug in rat liver S9; format: in vitro ADME; conditions: rat liver S9 0.5 mg/mL, pH 7.4, 1 mM NADPH, 37° C.; for half-life at 40 µM: read-out: T1/2 Parent Prodrug Cleavage (min) rLiver
Description: Rat liver S9 (XenoTech, Lenexa, Kans.; R1000.59, 20 mg/mL) was diluted to 0.5 mg mL in 0.1 M potassium phosphate buffer at pH 7.4 and 1 mM NADPH cofactor.
as §2, §1

[4] = Enzymatic stability of prodrug in rat colonic wash; format: in vitro ADME; conditions: rat colonic wash undiluted, 37° C.; for half-life at 40 µM: pH 7.4, read-out: T1/2 Parent Prodrug Cleavage (min) rColonic Wash
Description: To prepare the rat colonic wash, the colon between the ceacum and rectum was resected from a euthanized rat. Five to 10 mL of PBS pH 7.4 buffer (depending on the weight of the rat) was flushed into the lumen of the large intestine and collected into a 250 mL glass beaker at 0° C. (ice bath). The colonic wash was transferred into 10 mL conical tubes using a 10 mL syringe fitted with a filter. Samples of 0.5 mL colonic wash are stored at −80° C. until the time of use. Colonic was used without dilution.
as §2, §1

[5] = Enzymatic stability of prodrug in porcine pancreatin; format: in vitro ADME; conditions: porcine pancreatin 10 mg/mL, 0.1M Tris pH 7.4, 37° C.; for half-life at 40 µM: pig, read-out: T1/2 Parent Prodrug Cleavage (min) pPancreatin
Description: Porcine pancreatin (Sigma Aldrich, St. Louis, Mo.; P1625-100G) was diled to 10 mg/mL in 0.1M Tris buffer, pH 7.4.
as §2, §1

| Molecule | pH 8.0: Percent DMF or prodrug remaining after 60 minutes (pH 8.0 buffer stability) | half-life at 40 µM [1] | half-life at 40 µM [2] | half-life at 40 µM [3] | half-life at 40 µM [4] | half-life at 40 µM [5] | melting point | T1/2 Parent Prodrug Cleavage (min) rPlasma [1] | T1/2 Parent Prodrug Cleavage (min) CaCo2 [2] | T1/2 Parent Prodrug Cleavage (min) rLiver [3] | T1/2 Parent Prodrug Cleavage (min) rColonic Wash [4] | T1/2 Parent Prodrug Cleavage (min) pPancreatin [5] |
| --- | --- | --- | --- | --- | --- | --- | --- | --- | --- | --- | --- | --- |
| COCCNC(=O)COC(=O)/C=C/C(=O)OC [Compound 5, [N-(2-Methoxyethyl)carbamoyl]methyl methyl (2E)but-2-ene-1,4-dioate] | 53% | 2 min | 30 min | 10 min | > 60 min | 3 min | – | – | – | – | – | – |
| COCCN(CCOC)C(=O)COC(=O)/C=C/C(=O)OC [Compound 11] | – | – | – | – | – | – | 79 to 82 °C | – | – | – | – | – |
| COC(=O)/C=C/C(=O)OCC(=O)N(C)C [Compound 9] | 47% | 1 min | 8 min | 6 min | > 60 min | 4 min | – | – | – | – | – | – |
| COC(=O)/C=C/C(=O)OCC(=O)NCc1ccccc1 [Compound 2, Methyl [N-benzylcarbamoyl]methyl (2E)but-2-ene-1,4-dioate] | 17% | 9 min | 4 min | 9 min | 25 min | 1 min | – | – | – | – | – | – |
| CCCCNC(=O)COC(=O)/C=C/C(=O)OC [Compound 4, (N-Butylcarbamoyl)methyl methyl (2E)but-2-ene-1,4-dioate] | 40% | 1 min | 5 min | 2 min | 33 min | 2 min | – | – | – | – | – | – |
| Methyl(N-(1,3,4-thiadiazol-2-yl)carbamoyl)methyl(2E)but-2ene-1,4-dioate [Compound 8] | 141% | – | – | – | – | – | – | 6 min | 52 min | 23 min | 27 min | 15 min |
| COC(=O)/C=C/C(=O)OC(C)C(=O)N1CCOCC1 (stereo not shown) [Compound 28, Methyl 1-methyl-2-morpholin-4-yl-2-oxoethyl (2E)but-2-ene-1,4-dioate] | – | – | – | – | – | – | 70 to 73 °C | – | – | – | – | – |
| COC(=O)/C=C/C(=O)O[C@@H](C)C(=O)N1CCOCC1 [Compound 31, (1S)-1-Methyl-2-morpholin-4-yl-2-oxoethyl methyl (2E)but-2-ene-1,4-dioate] | – | – | – | – | – | – | 79 to 82 °C | – | – | – | – | – |
| COC(=O)/C=C/C(=O)OCC(=O)N1CCOCC1 [Compound 3, Methyl 2-morpholin-4-yl-2-oxoethyl (2E)but-2-ene-1,4-dioate] | 53% | 1 min | 56 min | 22 min | > 60 min | 8 min | 124 to 126 °C | – | – | – | – | – |
| COC(=O)/C=C/C(=O)OCC(=O)N(C)OC [Compound 10, (N-Methoxy-N-methylcarbamoyl)methyl methyl (2E) but-2-ene-1,4-dioate] | 42% | 1 min | 3 min | 1 min | > 60 min | 4 min | – | – | – | – | – | – |
| CCN(CC)C(=O)COC(=O)/C=C/C(=O)OC [Compound 1, (N,N-Diethylcarbamoyl)methyl methyl (2E)but-2-ene-1,4-dioate] | 63% | 1 min | 8 min | 2 min | > 60 min | 8 min | – | – | – | – | – | – |

— US8785443B2, “Methods of using prodrugs of methyl hydrogen fumarate and pharmaceutical compositions thereof” (XenoPort, Inc., priority 2008, dated 2014)
